Data taken from US20120046331A1, “Antifungal Agents and Uses Thereof” (priority 2010, published 2012).
In brackets after ≈: the same amount, converted by molar mass. Several values for one entry are separate records, joined by “and”; a condition that tells them apart may be missing. Equal values may be shown once. Read-outs that look alike come from different tables or passages of the source. Marks after values point to notes of the source that are not given here.

How the values were obtained:
E. floccosum [1] = assay: Checkerboard combination testing of compound 8 with antifungals, FIC (Example 1); format: cell-based, Epidermophyton floccosum; conditions: for Additivity # isolates / Additivity isolates (%): 0.5≦FIC≦1.0
Experimental: (§1) This example describes the in vitro activity of combinations of compounds according to the present invention and antifungal agents against a collection of dermatophytic fungal pathogens. Antifungal susceptibility testing was adapted from the CLSI M38-A broth microdilution method for dermatophytes (NCCLS-M38-A2 2008). Combination testing was performed by checkerboard method (with compound 8 in combination with fluconazole, itraconazole or terbinafine). A total of 30 isolates of 5 different fungal species were tested in the combination test: 6 isolates each of Trichophyton tonsurans, Trichophyton rubrum, Epidermophyton floccosum, Trichophyton mentagrophytes and Microsporum canis. Clinical isolates were obtained by the Laboratory of Dr. M. Ghannoum at Case Western University.
(§2) Synergy was assessed using the fractional inhibitory concentration (FIC), an interaction coefficient, with the following definitions:
(§3) The fold reduction of the itraconazole minimum inhibitory concentration (MIC) was also evaluated.

[2] = tested on: clinical isolates of Zygomycetes and molds; assay: In vitro synergy with azoles; format: cell-based; conditions: majority of clinical isolates
M. canis [3] = assay: Checkerboard combination testing of compound 8 with antifungals, FIC (Example 1); format: cell-based, Microsporum canis
Experimental: as §1
(§4) Synergy was assessed using the fractional inhibitory concentration (FIC), an interaction coefficient, with the following definitions: […]

M. canis [4] = assay: as above; format: cell-based, Microsporum canis; conditions: Compound 8 in combination with itraconazole, N=5 isolates
T. mentagrophytes [5] = assay: as above; format: cell-based, Trichophyton mentagrophytes; conditions: n=6 isolates; for Additivity # isolates / Additivity isolates (%): 0.5≦FIC≦1.0; for No Interaction # isolates: 1.0<FIC≦4.0; for Synergy # isolates / Synergy isolates (%): FIC<0.5
Experimental: as §1, §4

T. rubrum [6] = assay: as above; format: cell-based, Trichophyton rubrum; conditions: n=6 isolates; for Additivity # isolates / Additivity isolates (%): 0.5≦FIC≦1.0; for No Interaction # isolates: 1.0<FIC≦4.0; for Synergy # isolates / Synergy isolates (%): FIC<0.5
Experimental: as §1, §4

T. rubrum [7] = assay: MIC testing, modified CLSI M38-A2 for dermatophytes (Example 2); format: cell-based, Trichophyton rubrum; conditions: for MIC50: lowest concentration to inhibit 50% of the strains tested, n = 20
T. tonsurans [8] = assay: Single agent MIC, broth microdilution adapted from CLSI M38-A (Example 1); format: cell-based; conditions: Trichophyton tonsurans, range over clinical isolates, N=8, read-out: Cpd 8 MIC
Text: (§5) A minimum inhibitory concentration (MICx) of a compound such as a HDAC inhibitor or an antifungal agent (or both) is the concentration that reduces growth of a fungus by X %, compared to the growth of the fungus in the absence of the compound.
as §1

T. mentagrophytes [9] = assay: as above; format: cell-based; conditions: Trichophyton mentagrophytes, range over clinical isolates, N=10, read-out: Cpd 8 MIC
Text: as §5, §1

M. canis [10] = assay: as above; format: cell-based; conditions: Microsporum canis, range over clinical isolates, N=7, read-out: Cpd 8 MIC
Text: as §5, §1

E. floccosum [11] = assay: as above; format: cell-based; conditions: Epidermophyton floccosum, range over clinical isolates, N=9, read-out: Cpd 8 MIC
Text: as §5, §1

T. rubrum [12] = assay: as above; format: cell-based; conditions: Trichophyton rubrum, range over clinical isolates, N=10, read-out: Cpd 8 MIC
Text: as §5, §1

T. tonsurans [13] = assay: Checkerboard combination testing of compound 8 with antifungals, FIC (Example 1); format: cell-based, Trichophyton tonsurans; conditions: for Additivity # isolates / Additivity isolates (%): 0.5≦FIC≦1.0; for No Interaction # isolates: 1.0<FIC≦4.0; for Synergy # isolates / Synergy isolates (%): FIC<0.5
Experimental: as §1, §2, §3

[14] = tested on: broad panel of dermatophytic clinical isolates; assay: Single agent MIC, whole panel (Example 1); format: cell-based; conditions: range over all species and clinical isolates tested
Text: as §5, §1

[15] = tested on: T. rubrum, T. mentagrophytes and T. tonsurans strains; assay: Checkerboard microdilution Compound 8 + fluconazole, all strains (Example 2); format: cell-based; conditions: Compound 8 in combination with fluconazole
Experimental: (§6) MIC testing was performed according to the modification of the CLSI M38-A2 standard for dermatophytes developed at the Center (CLSI. Reference Method for Broth Dilution Antifungal Susceptibility Testing of Filamentous Fungi; Approved Standard-Second Edition. CLSI document M38-A2 [ISBN 1-56238-668-9]. CLSI, 940 West Valley Road, Suite 1400, Wayne, Pa. 19087-1898 USA, 2008; Ghannoum M A, et al. Intra- and Interlaboratory Study of a Method for Testing the Antifungal Susceptibilities of Dermatophytes. 2004 J Clin Microbiol 42:(7): 2977-2979). Compound 8 and fluconazole were tested in combination using a checkerboard microdilution method. The interaction between Compound 8 and fluconazole was determined by FIC Index, or Fractional Inhibitory Concentration Index, which assigns a numerical value to the interaction of the two antifungals.

T. tonsurans [16] = assay: Checkerboard microdilution Compound 8 + fluconazole, FIC Index (Example 2); format: cell-based; conditions: Compound 8 in combination with fluconazole, one value per strain (MRL #)
Experimental: as §6

T. mentagrophytes [17] = assay: as above; format: cell-based; conditions: Compound 8 in combination with fluconazole, one value per strain (MRL #)
Experimental: as §6

[18] = tested on: panel of clinical isolates of 5 common dermatophytic fungi; assay: Checkerboard combination testing, whole panel (Example 1); format: cell-based
Experimental: as §1, §4

T. tonsurans [19] = assay: MIC testing, modified CLSI M38-A2 for dermatophytes (Example 2); format: cell-based
Experimental: as §6

T. mentagrophytes [20] = assay: as above; format: cell-based
Experimental: as §6

T. rubrum [21] = assay: Checkerboard microdilution Compound 8 + fluconazole, FIC Index (Example 2); format: cell-based, Trichophyton rubrum; conditions: Compound 8 in combination with fluconazole, one value per strain (MRL #)
Experimental: This example describes the in vitro activity of combinations of compounds according to the present invention and antifungal agents against clinical isolates of Trichophyton rubrum. Twenty clinical isolates Trichophyton rubrum, including 9 strains with elevated terbinafine MICs, taken from the culture collection of the Center for Medical Mycology, were tested.
as §6

[22] = Compound 8 in combination with fluconazole, n=6 isolates
[23] = Compound 8 in combination with fluconazole, 1.0<FIC≦4.0, n=6 isolates
[24] = Compound 8 in combination with fluconazole, FIC<0.5, n=6 isolates
[25] = Compound 8 in combination with itraconazole, n=6 isolates
[26] = Compound 8 in combination with itraconazole, FIC<0.5, n=6 isolates
[27] = one value per clinical isolate (Strain # 1-6)
[28] = Compound 8 in combination with fluconazole, 0.5≦FIC≦1.0, n=6 isolates
[29] = Compound 8 in combination with fluconazole
[30] = Compound 8 in combination with itraconazole
[31] = Compound 8 in combination with itraconazole, N=5 isolates
[32] = Trichophyton tonsurans, n = 5 strains
[33] = Trichophyton mentagrophytes, n = 5 strains

Fold Reduction of Itraconazole MIC by Cpd 8 (E. floccosum [1]; [27]): 8x and 4x and 7.5x
MIC50 (T. rubrum [7]; Trichophyton rubrum, read-out: MIC50): 1 µg/mL (≈ 3.53 µM)
MIC90 (T. rubrum [7]; Trichophyton rubrum, n = 20 strains): 4 µg/mL (≈ 14.1 µM)
MIC50 (T. rubrum [7]): 1 µg/mL (≈ 3.53 µM)
MIC Range (T. rubrum [7]; n = 20 strains): 0.5 to 4.0 µg/mL
MIC (T. tonsurans [8]): 0.02 to 0.25 µg/mL
MIC (T. mentagrophytes [9]): 0.12 to 2 µg/mL
MIC (M. canis [10]): 0.12 to 2 µg/mL
MIC (E. floccosum [11]): 0.5 to 1 µg/mL
MIC (T. rubrum [12]): 0.06 to 0.25 µg/mL
Fold Reduction of Itraconazole MIC by Cpd 8 (T. tonsurans [13]; [27]): 2x and 4x
MIC [14]: 0.02 to 2 µg/mL
MIC (T. tonsurans [19]; Trichophyton tonsurans, drug alone, one value per strain (MRL # in c0), read-out: Individual MIC): 0.12 µg/mL
MIC50 (T. tonsurans [19]; [32]): 0.06 µg/mL
MIC90 (T. tonsurans [19]; [32]): 0.06 µg/mL
MIC Range (T. tonsurans [19]; n = 5 strains): 0.06 to 0.12 µg/mL
MIC (T. mentagrophytes [20]; Trichophyton mentagrophytes, drug alone, one value per strain (MRL # in c0), read-out: Individual MIC): 1 µg/mL
MIC50 (T. mentagrophytes [20]; [33]): 1 µg/mL
MIC90 (T. mentagrophytes [20]; [33]): 1 µg/mL
MIC Range (T. mentagrophytes [20]; n = 5 strains): 1.0 µg/mL
Structure (SMILES): O=C(Cc1ccc(CCCCc2ccccc2)cc1)NO [Compound 8]
Additivity # isolates (E. floccosum [1]; [22]): 4
Additivity isolates (%) (E. floccosum [1]; [22]): (67%)
No Interaction # isolates (E. floccosum [1]; [23]): 2
No Interaction isolates (%) (E. floccosum [1]; [23]): (33%)
Synergy # isolates (E. floccosum [1]; [24]): 0
Additivity # isolates (E. floccosum [1]; [25]): 2
Additivity isolates (%) (E. floccosum [1]; [25]): (33%)
No Interaction # isolates (E. floccosum [1]; Compound 8 in combination with itraconazole, 1.0<FIC≦4.0, n=6 isolates): 0
Synergy # isolates (E. floccosum [1]; [26]): 4
Synergy isolates (%) (E. floccosum [1]; [26]): (67%)
In vitro interaction with azoles [2]: synergy
Additivity # isolates (M. canis [3]; [28]): 4
Additivity isolates (%) (M. canis [3]; [28]): (67%)
No Interaction # isolates (M. canis [3]; [23]): 1
No Interaction isolates (%) (M. canis [3]; [23]): (17%)
Synergy # isolates (M. canis [3]; [24]): 1
Synergy isolates (%) (M. canis [3]; [24]): (17%)
No Interaction # isolates (M. canis [3]; Compound 8 in combination with itraconazole, 1.0<FIC≦4.0, N=5 isolates): 4
Additivity # isolates (M. canis [4]; 0.5≦FIC≦1.0): 0*
No Interaction isolates (%) (M. canis [4]; 1.0<FIC≦4.0): (80%)*
Synergy # isolates (M. canis [4]; FIC<0.5): 1
Synergy isolates (%) (M. canis [4]; FIC<0.5): (20%)*
Additivity # isolates (T. mentagrophytes [5]; [29]): 4
Additivity isolates (%) (T. mentagrophytes [5]; [29]): (67%)
No Interaction # isolates (T. mentagrophytes [5]; [29]): 0
Synergy # isolates (T. mentagrophytes [5]; [29]): 2
Synergy isolates (%) (T. mentagrophytes [5]; [29]): (33%)
Additivity # isolates (T. mentagrophytes [5]; [30]): 1
Additivity isolates (%) (T. mentagrophytes [5]; [30]): (17%)
No Interaction # isolates (T. mentagrophytes [5]; [30]): 0
Synergy # isolates (T. mentagrophytes [5]; [30]): 5
Synergy isolates (%) (T. mentagrophytes [5]; [30]): (83%)
Additivity # isolates (T. rubrum [6]; [29]): 4
Additivity isolates (%) (T. rubrum [6]; [29]): (67%)
No Interaction # isolates (T. rubrum [6]; [29]): 0
Synergy # isolates (T. rubrum [6]; [29]): 2
Synergy isolates (%) (T. rubrum [6]; [29]): (33%)
Additivity # isolates (T. rubrum [6]; [30]): 2
Additivity isolates (%) (T. rubrum [6]; [30]): (33%)
No Interaction # isolates (T. rubrum [6]; [30]): 0
Synergy # isolates (T. rubrum [6]; [30]): 4
Synergy isolates (%) (T. rubrum [6]; [30]): (67%)
Compound 8 MIC compared with the corresponding terbinafine MIC (T. rubrum [7]; nine strains with a terbinafine MIC≧4.0 μg/ml): lower than the corresponding terbinafine MIC for eight of nine strains
Additivity # isolates (T. tonsurans [13]; [22]): 1
Additivity isolates (%) (T. tonsurans [13]; [22]): (17%)
No Interaction # isolates (T. tonsurans [13]; [22]): 0
Synergy # isolates (T. tonsurans [13]; [22]): 5
Synergy isolates (%) (T. tonsurans [13]; [22]): (83%)
Additivity # isolates (T. tonsurans [13]; [31]): 4
Additivity isolates (%) (T. tonsurans [13]; [31]): (80%)*
No Interaction # isolates (T. tonsurans [13]; [31]): 0
Synergy # isolates (T. tonsurans [13]; [31]): 1
Synergy isolates (%) (T. tonsurans [13]; [31]): (20%)*
Antagonism [15]: No antagonism was demonstrated
Synergism, % of the strains [15]: 23%
Interpretation from ODDS (T. tonsurans [16]; strain MRL 10152): Additive
Interpretation from ODDS (T. tonsurans [16]; strain MRL 10327): No interaction
Interpretation from ODDS (T. tonsurans [16]; strain MRL 10328): Synergistic
Interpretation from ODDS (T. mentagrophytes [17]; strain MRL 11256): Synergistic
Interpretation from ODDS (T. mentagrophytes [17]; strain MRL 12511): Additive
Interpretation from ODDS (T. mentagrophytes [17]; strain MRL 12680): No interaction
Synergy, % of the isolate combinations tested ([18]; Compound 8 with fluconazole, 30 isolate combinations): 33%
Synergy, number of isolates ([18]; Compound 8 with fluconazole, of 30 isolate combinations tested): 10
Synergy, % of the isolate combinations tested ([18]; Compound 8 with itraconazole, 28 isolate combinations): 54%
Synergy, number of isolates ([18]; Compound 8 with itraconazole, of 28 isolate combinations tested): 15
Antagonism ([18]; any of the Compound 8-azole combinations or clinical isolates): Antagonism was not observed
Antifungal activity as compared with fluconazole (T. tonsurans [19]; all strains tested): more potent antifungal activity as compared with fluconazole
Antifungal activity as compared with fluconazole (T. mentagrophytes [20]; all strains tested): more potent antifungal activity as compared with fluconazole
Interpretation from ODDS (T. rubrum [21]; strain MRL 476): No interaction
Interpretation from ODDS (T. rubrum [21]; strain MRL 477): Additive
Interpretation from ODDS (T. rubrum [21]; strain MRL 670): Synergistic
Interpretation from ODDS (T. rubrum [21]; strain MRL 9482): Addivtive
